Here are results for 4 compounds from PMC6172315, “Relative Selectivity of Plant Cardenolides for Na^+/K^+-ATPases From the Monarch Butterfly and Non-resistant Insects” (Frontiers in Plant Science, 2018).

“Also recorded” adds a separate entry of the source.

Series [1] addresses D. plexippus-Na^+/K^+-ATPase (Danaus plexippus, UniProt K0G7C4). As to the kind of experiment: In vitro inhibition assay of D. plexippus Na+/K+-ATPase (phosphate release). In kind it is biochemical. The note with it: for inhibition of D. plexippus Na^+/K^+-ATPase compared to ouabain: DP, F-test comparison of entire dose-response curves with ouabain; for IC50: read-out: IC50 D. plexippus- Na^+/K^+-ATPase, Na+/K+-ATPase extracted from butterfly brains. The method, then:
(§1) Danaus plexippus was caught in the field or purchased; E. core and S. gregaria were obtained commercially, with additional E. core from a laboratory colony. […] Briefly, brains dissected from butterflies stored at -80°C or recta from locusts were homogenized (individually or pooled) with an all glass grinder (Wheaton) in deionized water, frozen at -80°C, freeze-dried, and stored frozen until use. For in vitro assays, lyophilisates were dissolved in water, sonicated in an ultrasonic bath, and centrifuged to remove undissolved matter. All cardiac glycosides were tested at least with three biological replicates of Na^+/K^+-ATPase (i.e., Na^+/K^+-ATPase from genetically different specimens or pools of specimens).
(§2) Means of duplicate determinations (i.e., technical replicates) were used as data points. In consequence, each data point of a dose–response curve is the mean of at least three biological replicates based on two technical replicates, each. […] Here, technical replicates collected on the same 96-well plate were averaged and used as data points.
(§3) Stock solutions of cardiac glycosides, as well as pregnane glycosides, were prepared from crystalline compounds in DMSO. While concentrations of all other compounds were based on mass, calactin, and calotropin stock solutions were adjusted with HPLC using digitoxin as a reference.
(§4) Pairwise statistical comparisons of dose-response curves were carried out using the “compare datasets” option in OriginPro, which is based on an F-Test evaluating if the two curves are identical. Correlation analyses using log10-transformed IC50 values was also carried out with OriginPro. […] To analyze relative selectivity without a reference, we also plotted the fold differences between the IC50 values of individual cardenolides for non-adapted and adapted insect Na^+/K^+-ATPase and compared them to mammalian (lamb) Na^+/K^+-ATPase (Figure 2).

A short description of the next series: physchem. The note with it: for solubility: aqueous with cosolvent or surfactant or cyclodextrin, kinetic from dmso stock. The method, then: as §3
The target in series [2] is S. gregaria-Na^+/K^+-ATPase (Schistocerca gregaria, UniProt A0A8E5JSN5). In kind it is biochemical. The conditions noted are these: for IC50: read-out: IC50 S. gregaria- Na^+/K^+-ATPase, Na+/K+-ATPase extracted from locust recta. On the procedure:
as §1, §2, §3, §4

The target of a further series is E. core-Na^+/K^+-ATPase (Euploea core, UniProt A0A5C0C9F5). As to the kind of experiment: In vitro inhibition assay of E. core Na+/K+-ATPase (phosphate release). In kind it is biochemical. The conditions noted are these: for IC50: read-out: IC50 E. core- Na^+/K^+-ATPase, Na+/K+-ATPase extracted from butterfly brains. The method, then: as §1, §2, §3, §4
Sequence of E. core-Na^+/K^+-ATPase (A0A5C0C9F5 1-1013): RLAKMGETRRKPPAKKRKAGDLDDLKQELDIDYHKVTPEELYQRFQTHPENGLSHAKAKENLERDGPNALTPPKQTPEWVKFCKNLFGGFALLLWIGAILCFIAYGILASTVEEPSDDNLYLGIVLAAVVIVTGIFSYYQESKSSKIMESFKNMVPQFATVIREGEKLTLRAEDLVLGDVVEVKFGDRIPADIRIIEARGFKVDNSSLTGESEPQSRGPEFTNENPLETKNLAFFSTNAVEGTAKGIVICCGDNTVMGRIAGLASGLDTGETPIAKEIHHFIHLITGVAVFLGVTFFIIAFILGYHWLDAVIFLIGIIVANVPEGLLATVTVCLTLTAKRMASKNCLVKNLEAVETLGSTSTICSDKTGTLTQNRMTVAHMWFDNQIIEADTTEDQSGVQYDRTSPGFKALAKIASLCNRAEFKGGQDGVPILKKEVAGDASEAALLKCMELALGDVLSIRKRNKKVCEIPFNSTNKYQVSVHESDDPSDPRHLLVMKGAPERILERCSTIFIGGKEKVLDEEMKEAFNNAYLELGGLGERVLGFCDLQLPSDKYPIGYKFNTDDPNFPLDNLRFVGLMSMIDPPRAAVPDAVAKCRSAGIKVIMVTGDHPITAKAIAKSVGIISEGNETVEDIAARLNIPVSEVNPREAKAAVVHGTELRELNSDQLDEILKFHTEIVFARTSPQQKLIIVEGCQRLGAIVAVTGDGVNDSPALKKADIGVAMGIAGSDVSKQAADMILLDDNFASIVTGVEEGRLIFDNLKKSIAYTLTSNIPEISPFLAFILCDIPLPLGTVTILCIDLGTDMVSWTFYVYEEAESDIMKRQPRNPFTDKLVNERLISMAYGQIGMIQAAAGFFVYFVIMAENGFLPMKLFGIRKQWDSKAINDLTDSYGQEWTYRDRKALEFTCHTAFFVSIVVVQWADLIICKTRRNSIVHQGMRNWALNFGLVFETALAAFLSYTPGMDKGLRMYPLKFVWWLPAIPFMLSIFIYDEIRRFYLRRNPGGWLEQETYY
Another series deals with porcine Na^+/K^+-ATPase. As to the kind of experiment: In vitro inhibition assay of porcine Na+/K+-ATPase. In kind it is biochemical, pig. The note with it: purified from pig brain, 0.01 U/ml in the assay. On the procedure: Lyophilized Na^+/K^+-ATPase was dissolved in water to a concentration of 1 U/ml, stored at -80°C in single-use aliquots and diluted with H2O to 0.05 U/ml for use in the in vitro assay (final concentration in the assay 0.01 U/ml).
as §4

On the set-up of series [3]: method as in Imai et al., 1965. The note with it: ref Imai et al., 1965; cited from earlier work.
The mark [4] stands for this setting: both dissolved in 25% DMSO, F-test of curves.

Usually solubility stands for the dissolved amount per volume that the medium holds. Lower therefore signals a poorly soluble substance.

Sequence of S. gregaria-Na^+/K^+-ATPase (A0A8E5JSN5 1-1039): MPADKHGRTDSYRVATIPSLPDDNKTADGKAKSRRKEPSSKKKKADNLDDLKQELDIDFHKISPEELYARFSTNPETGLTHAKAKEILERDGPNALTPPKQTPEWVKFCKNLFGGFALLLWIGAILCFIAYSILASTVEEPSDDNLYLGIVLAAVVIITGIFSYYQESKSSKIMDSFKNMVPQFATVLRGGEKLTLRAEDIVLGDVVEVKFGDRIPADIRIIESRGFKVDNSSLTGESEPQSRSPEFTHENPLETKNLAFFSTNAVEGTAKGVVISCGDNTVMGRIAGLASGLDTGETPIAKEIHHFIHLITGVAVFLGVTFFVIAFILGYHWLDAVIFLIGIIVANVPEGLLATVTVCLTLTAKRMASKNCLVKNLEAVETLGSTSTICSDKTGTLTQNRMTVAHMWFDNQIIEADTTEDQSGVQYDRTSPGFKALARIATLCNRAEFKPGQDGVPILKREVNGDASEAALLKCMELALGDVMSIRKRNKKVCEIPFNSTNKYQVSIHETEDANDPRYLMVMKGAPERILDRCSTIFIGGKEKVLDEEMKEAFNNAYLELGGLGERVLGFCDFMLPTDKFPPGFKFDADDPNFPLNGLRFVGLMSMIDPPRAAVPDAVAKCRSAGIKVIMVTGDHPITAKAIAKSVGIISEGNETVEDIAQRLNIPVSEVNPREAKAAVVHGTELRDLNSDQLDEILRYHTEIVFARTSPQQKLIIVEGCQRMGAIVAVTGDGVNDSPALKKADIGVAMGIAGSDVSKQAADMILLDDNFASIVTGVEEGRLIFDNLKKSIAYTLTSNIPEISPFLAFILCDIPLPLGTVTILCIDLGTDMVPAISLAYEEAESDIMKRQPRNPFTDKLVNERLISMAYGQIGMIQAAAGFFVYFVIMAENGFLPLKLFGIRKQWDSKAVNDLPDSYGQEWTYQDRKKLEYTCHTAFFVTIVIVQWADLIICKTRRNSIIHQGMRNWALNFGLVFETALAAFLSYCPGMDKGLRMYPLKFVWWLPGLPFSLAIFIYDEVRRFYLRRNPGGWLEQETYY
Sequence of D. plexippus-Na^+/K^+-ATPase (K0G7C4 1-1009): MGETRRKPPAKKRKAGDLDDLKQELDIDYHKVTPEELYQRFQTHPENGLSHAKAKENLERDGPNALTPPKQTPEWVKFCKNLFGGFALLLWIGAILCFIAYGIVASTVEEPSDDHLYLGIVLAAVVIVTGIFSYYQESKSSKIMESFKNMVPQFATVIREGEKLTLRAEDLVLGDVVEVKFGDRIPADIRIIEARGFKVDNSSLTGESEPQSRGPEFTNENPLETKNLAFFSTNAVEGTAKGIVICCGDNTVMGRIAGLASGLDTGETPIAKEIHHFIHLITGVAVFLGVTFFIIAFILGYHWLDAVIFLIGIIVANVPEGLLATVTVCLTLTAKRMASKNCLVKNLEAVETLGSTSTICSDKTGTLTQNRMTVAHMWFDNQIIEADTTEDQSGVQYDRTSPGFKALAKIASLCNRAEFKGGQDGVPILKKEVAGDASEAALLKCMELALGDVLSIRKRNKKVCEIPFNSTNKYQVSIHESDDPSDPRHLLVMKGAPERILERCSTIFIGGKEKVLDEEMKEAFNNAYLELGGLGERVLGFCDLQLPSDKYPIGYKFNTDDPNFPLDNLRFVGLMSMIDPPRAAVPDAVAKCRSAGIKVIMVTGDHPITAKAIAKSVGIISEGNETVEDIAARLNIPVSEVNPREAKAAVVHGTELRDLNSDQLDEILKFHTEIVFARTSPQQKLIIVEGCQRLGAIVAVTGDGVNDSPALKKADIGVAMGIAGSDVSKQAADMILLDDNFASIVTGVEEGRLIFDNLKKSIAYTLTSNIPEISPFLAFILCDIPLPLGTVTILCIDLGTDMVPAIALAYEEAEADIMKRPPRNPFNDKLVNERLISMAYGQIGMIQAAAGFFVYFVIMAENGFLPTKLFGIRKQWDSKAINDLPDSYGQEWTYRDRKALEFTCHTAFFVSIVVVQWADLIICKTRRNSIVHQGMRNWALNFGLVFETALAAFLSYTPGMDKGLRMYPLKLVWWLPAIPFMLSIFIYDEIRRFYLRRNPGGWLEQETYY

Consider `CO[C@H]1C[C@H](O[C@H]2CC[C@@]3(C)[C@H](CC[C@@H]4[C@@H]3CC[C@]3(C)[C@@H](C5=CC(=O)OC5)[C@@H](OC(C)=O)C[C@]43O)C2)O[C@@H](C)[C@@H]1O` [oleandrin], for which, in series [1], the “inhibition of D. plexippus Na^+/K^+-ATPase compared to ouabain” value is given as “> ouabain; F2,6 = 252.64, p < 0.001” and the IC50 was found to be 3680 nM. Moreover, in the series “physchem”, the solubility was below 100 µM. In series [2] (SG, F-test comparison of entire dose-response curves with ouabain), the “inhibition of S. gregaria Na^+/K^+-ATPase compared to ouabain” value is reported as “= ouabain; F2,6 = 2.24, p = 0.19”. The IC50 in series [2] was 834 nM.

With `CC12CCC(O)CC1CCC1C2CCC2(C)C(C3=CC(=O)OC3)CCC12O` (stereo not shown) [uzarigenin], the “inhibition of E. core Na^+/K^+-ATPase compared to ouabain” value at E. core-Na^+/K^+-ATPase (EC, F-test comparison of entire dose-response curves with ouabain) is “< ouabain; F2,6 = 53.30, p < 0.001”. The “inhibition of E. core Na^+/K^+-ATPase compared to 5β equivalent digitoxigenin” value on E. core-Na^+/K^+-ATPase (setting [4]) is on record as “no difference”. For the same compound, on E. core-Na^+/K^+-ATPase, the IC50 stood at 4580 nM. Moreover, in series [1], the “inhibition of D. plexippus Na^+/K^+-ATPase compared to ouabain” value is reported as “> ouabain; F2,6 = 5.73, p = 0.04” and the IC50 was 16000 nM. Also, in series [1] (setting [4]), the “inhibition of D. plexippus Na^+/K^+-ATPase compared to 5β equivalent digitoxigenin” value is listed as “no difference”. Further, the “solubility compared to 5-β-isomer digitoxigenin” value in “physchem” (ambient conditions) is “at least three to four times lower; also recorded: strongly reduced”. For the same compound, in “physchem”, the solubility is below 100 µM.

For `C[C@@H]1O[C@@H](O[C@H]2C[C@@H](O)[C@]3(CO)[C@H]4[C@H](O)C[C@]5(C)[C@@H](C6=CC(=O)OC6)CC[C@]5(O)[C@@H]4CC[C@]3(O)C2)[C@H](O)[C@H](O)[C@H]1O` [ouabain, reference compound], the IC50 worked out at 1030 nM at E. core-Na^+/K^+-ATPase, 94000 nM in series [1], 997 nM in series [2] and 486 nM on porcine Na^+/K^+-ATPase.

`CO[C@@H]1C[C@H](O[C@H]2CC[C@@]3(C)[C@H](CC[C@@]45O[C@@]46CC[C@H](C4=CC(=O)OC4)[C@@]6(C)CC[C@H]35)C2)O[C@H](C)[C@@H]1O` [adynerin]: the “cardiotonic activity in vertebrates” value in series [3] is reported as “lack cardiotonic activity”. Further, the “inhibition of S. gregaria-Na^+/K^+-ATPase (in words)” value in series [2] (Supplementary Figure 2) was “lack of inhibition; also recorded: failed to inhibit”.
